Legend:
S. aureus (209P strain) = assay: Antibacterial activity in liquid medium; assay type: cell-based, Staphylococcus aureus; conditions: 209P strain; Mueller–Hinton broth, 37 °C, 2% DMSO
From the text: (§1) Two S. aureus strains were used: a susceptible strain 209P and a clinical isolate strain 129B (resistant to antibiotics: benzylpenicillin, clindamycin, erythromycin, oxacillin, sulfamethoxazole, and vancomycin). Two MRSA strains were included: a susceptible strain ATCC 43300 (resistant to antibiotics: methicillin, oxacillin (beta-lactam antibiotics), ampicillin (https://www.atcc.org/products/43300 (accessed on 11 November 2023)) and a clinical isolate strain SA 180 (resistant to antibiotics: benzylpenicillin and oxacillin (beta-lactam antibiotics), ciprofloxacin, clindamycin, erythromycin, levomycetin, sulfamethoxazole, and vancomycin). One B. cereus was used: a susceptible strain, IP 5832. Two P. aeruginosa strains were included: a susceptible strain, ATCC 28753, and a resistant strain, 2943. Two E. coli strains were used: a susceptible strain, K12, and a susceptible strain, MG1655.
(§2) Determination of the growth for the bacteria S. aureus strain 209P, MRSA strain ATCC 43300, B. cereus strain IP 5832, P. aeruginosa strain ATCC 28753, and E. coli strain K12 was performed using Mueller–Hinton Broth (MHB) (Sigma-Aldrich, St. Louis, MO, USA). Bacteria of S. aureus (strain 129B) and MRSA (strain SA 180-F) were grown on the brain-heart infusion (BHI) medium, and bacteria of P. aeruginosa (strain 2943) and E. coli (strain MG1655) were grown on the LB medium. The preparation and co-incubation of peptides with bacteria were carried out as described previously. The samples were grown at 37 °C.

MRSA (ATCC 43300 strain) = assay: Antibacterial activity in liquid medium; assay type: cell-based, Methicillin-resistant Staphylococcus aureus; conditions: ATCC 43300 strain; Mueller–Hinton broth, 37 °C, 2% DMSO
From the text: as §1, §2

E. coli (K12 strain) = assay: Antibacterial activity in liquid medium; assay type: cell-based, Escherichia coli; conditions: K12 strain; Mueller–Hinton broth, 37 °C, 2% DMSO
From the text: as §1, §2

bacteria = assay: Antibacterial activity of amyloidogenic fragments alone (bacteria not given); assay type: cell-based; conditions: Table 2 and Table S1

ITDFGIFIGL [I10L^P]
913 µM: Peptide Activity in Liquid Medium after 15 h of Incubation (Gentamicin as Positive Control) (S. aureus (209P strain)) | Peptide Activity in Liquid Medium after 15 h of Incubation (Gentamicin as Positive Control) (MRSA (ATCC 43300 strain)) | Peptide Activity in Liquid Medium after 15 h of Incubation (Gentamicin as Positive Control) (E. coli (K12 strain)) | Concentration with antibacterial activity, amyloidogenic fragment alone (bacteria)

— publication PMC10706425, “Enhancing the Antimicrobial Properties of Peptides through Cell-Penetrating Peptide Conjugation: A Comprehensive Assessment” (International Journal of Molecular Sciences, 2023)
